In PubChem BioAssay AID1918945 (Molecular Pharmacology Branch, DTP, NCI, 2023):

System: 883617-216-R-J1-PDC complex spheroid viability
Experiment: Anticancer human tumor 883617-216-R-J1-PDC patient-derived bladder carcinoma cell line growth inhibition
Settings: for IC50: curve of first compound; for viability, T/C: stronger effect = lower value
Excerpt: Multicellular complex tumor spheroid response to LSD1 Inhibitor Iadademstat in combination with a variety of drugs and investigational agents in selected tumor cell lines
The current study was undertaken to assess response to LSD1 inhibitors in combination with standard-of-care drugs and investigational agents in solid tumor complex spheroid models as well as in the K-562 leukemia. Complex spheroids include a stromal component modeled by human endothelial cells (HUVEC) and fibroblasts modeled by human mesenchymal stem cells (MSCs). The concentration ranges selected for each drug and investigational agent were based upon clinically achievable concentrations if the clinical Cmax of the agent was known.
Compounds. The drugs and investigational agents used in this study are listed on Table 1. All of the agents used, including staurosporine (NSC755774) and gemcitabine (NSC613327), were obtained from the Developmental Therapeutics Program, NCI. FDA-approved anticancer drugs are available from the NCI at http://dtp.nci.nih.gov/branches/dscb/oncology_drugset_explanation.html. Drugs and investigational agents were >95% pure by proton nuclear magnetic resonance (NMR) and liquid chromatography/mass spectrometry (LC/MS). Stock solutions were prepared at 400x in DMSO, stored at -70 degrees C, and diluted in fresh medium prior to their use. The final concentration of DMSO in cell culture wells never exceeded 0.25% (v/v). The FDA-approved anticancer drug set is available from the Developmental Therapeutics Program at https://dtp.cancer.gov/organization/dscb/obtaining/available_plates.htm. All drugs and investigational agents were tested over a range starting from a high concentration at or near the clinical Cmax and decreasing in half-log increments. If the clinical Cmax for an agent had not been determined, the highest concentration tested was 10 microM.
Cell Lines. The patient-derived cancer cell (PDC) lines: 292921-168-R-J2-PDC, K24384-001-R-PDC, and 521955-158-R2-J5-PDC pancreatic carcinomas, 556581-035-R-J1 ovarian carcinoma, 324938-238-R-J1-PDC, 855422-203-R-J1-PDC and 883617-216-R-J1-PDC urothelial bladder carcinomas, 743489-274-T-PDC renal cell carcinoma, 138582-R-J1 Merkel cell tumor, K60290-347-R-J1 and K57222-313-R-J1-PDC glioblastomas, 653999-131-R-J2-PDC, LG0703-F948-PDC, and 349418-098-R-PDC non-small cell lung carcinomas, 885512-296-R-J2-PDC, 171881-019-R-J1-PDC breast carcinomas and 186277-243-T-J2-PDC and 233499-124-R-J2-PDC colon carcinomas were obtained from the NCI Patient-Derived Models Repository (PDMR, https://pdmr.cancer.gov). The established cell lines NCI/ADR-RES (RRID:CVCL_14520 and OVCAR-5 (RRID:CVCL_1628) ovarian carcinomas, 786-O (RRID:CVCL_1051) and A498 (RRID:CVCL_A498) renal cell carcinoma, NCI-H211 (ATCC, cat. CRL-5824; RRID:CVCL_1529), NCI-H196 (ATCC, cat. CRL-5823, RRID:CVCL_1509), SW 1271 (ATCC, cat. CRL-2177, RRID:CVCL_1716) and NCI-H1876 (ATCC, cat. CRL-5902, RRID:CVCL_1503) small cell lung carcinomas, MDA-MB-231 (RRID:CVCL_0062) and MDA-MB-468 (RRID:CVCL_0419)breast carcinomas (10-12). Pooled donor human umbilical vein endothelial cells (HUVEC, Lonza, cat. CC-2519) and human mesenchymal stem cells (hMSC, Lonza, cat. PT-2501) were purchased from Lonza (Walkersville, MD).
Cell Culture. All cells were maintained in an incubator at 37 degrees C and 5% CO2 with 95% humidity. The PDC lines were cultured according to standard operating procedures established by the NCI PDMR (https://pdmr.cancer.gov). Briefly all PDCs were thawed and cultured in Matrigel-coated flasks prepared with a working solution of 1X Ham's F-12 nutrient mix, without supplementation (Invitrogen, Waltham, MA, cat. 11765054), 100 U/mL penicillin-streptomycin (Invitrogen, cat. 15140122), and 2.5% Matrigel (Corning Inc., Corning, NY, cat. 354248) for the first three passages. […]

[1] = second compound 0.1 µM, first compound 0.00949 µM
[2] = second compound 0.1 µM, first compound 0.03 µM
[3] = second compound 0.1 µM, first compound 0.0949 µM
[4] = second compound 0.1 µM, first compound 0.3 µM
[5] = second compound 0.316 µM, first compound 0.00949 µM
[6] = second compound 0.316 µM, first compound 0.03 µM
[7] = second compound 0.316 µM, first compound 0.0949 µM
[8] = second compound 0.316 µM, first compound 0.3 µM
[9] = second compound 1 µM, first compound 0.00949 µM
[10] = second compound 1 µM, first compound 0.03 µM
[11] = second compound 1 µM, first compound 0.0949 µM
[12] = second compound 1 µM, first compound 0.3 µM
[13] = second compound 3.16 µM, first compound 0.00949 µM
[14] = second compound 3.16 µM, first compound 0.03 µM
[15] = second compound 3.16 µM, first compound 0.0949 µM
[16] = second compound 3.16 µM, first compound 0.3 µM
[17] = second compound 10 µM, first compound 0.00949 µM
[18] = second compound 10 µM, first compound 0.03 µM
[19] = second compound 10 µM, first compound 0.0949 µM
[20] = second compound 10 µM, first compound 0.3 µM
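Further: exposure lasted seven days after three days of spheroid growth.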
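Wherever viability, T/C is given: 100% = DMSO vehicle control luminescence.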

Row | Structure (SMILES) | IC50 (second compound 0.1 µM) | IC50 (second compound 0.316 µM) | IC50 (second compound 1 µM) | IC50 (second compound 3.16 µM) | IC50 (second compound 10 µM) | viability, T/C [1] | viability, T/C [2] | viability, T/C [3] | viability, T/C [4] | viability, T/C [5] | viability, T/C [6] | viability, T/C [7] | viability, T/C [8] | viability, T/C [9] | viability, T/C [10] | viability, T/C [11] | viability, T/C [12] | viability, T/C [13] | viability, T/C [14] | viability, T/C [15] | further results
1 | Nc1ncn(C2CC(O)C(CO)S2)c(=O)n1 (stereo not given) + NC1CC1c1ccc(-c2cccc(O)c2)cc1 | 27.6 nM | 40.7 nM | 33.9 nM | 24.5 nM | 18.5 nM | 67.2% | 49.5% | 37.6% | 29.5% | 77.9% | 51.3% | 38.1% | 30.5% | 64% | 57.5% | 36% | 29.4% | 64.2% | 47.1% | 38.7% | viability, T/C (second compound 0.1 µM, first compound 0.000949 µM): 115%; viability, T/C (second compound 0.1 µM, first compound 0.003 µM): 97.1%; viability, T/C (second compound 0.316 µM, first compound 0.000949 µM): 119%; viability, T/C (second compound 0.316 µM, first compound 0.003 µM): 89.5%; viability, T/C (second compound 1 µM, first compound 0.000949 µM): 106%; viability, T/C (second compound 1 µM, first compound 0.003 µM): 101%; viability, T/C (second compound 3.16 µM, first compound 0.000949 µM): 92.8%; viability, T/C (second compound 3.16 µM, first compound 0.003 µM): 95.8%; viability, T/C [16]: 26.3%; viability, T/C (second compound 10 µM, first compound 0.000949 µM): 78.4%; viability, T/C (second compound 10 µM, first compound 0.003 µM): 76.7%; viability, T/C [17]: 56.7%; viability, T/C [18]: 45%; viability, T/C [19]: 36.6%; viability, T/C [20]: 33.1%
2 | O=C(C=Cc1cccc(S(=O)(=O)Nc2ccccc2)c1)NO + NC1CCC(NC2CC2c2ccccc2)CC1 | 142 nM | 131 nM | 139 nM | 139 nM | 124 nM | 102% | 92.8% | 55.3% | 31.2% | 108% | 98.6% | 50% | 31.7% | 95.7% | 84.3% | 57.4% | 30.8% | 101% | 84.2% | 55.7% | viability, T/C (second compound 0.1 µM, first compound 0.949 µM): 20.7%; viability, T/C (second compound 0.1 µM, first compound 3 µM): 2.88%; viability, T/C (second compound 0.316 µM, first compound 0.949 µM): 20.9%; viability, T/C (second compound 0.316 µM, first compound 3 µM): 2.02%; viability, T/C (second compound 1 µM, first compound 0.949 µM): 18.9%; viability, T/C (second compound 1 µM, first compound 3 µM): 2.72%; viability, T/C [16]: 34.2%; viability, T/C (second compound 3.16 µM, first compound 0.949 µM): 17.8%; viability, T/C (second compound 3.16 µM, first compound 3 µM): 2.63%; viability, T/C [17]: 99.5%; viability, T/C [18]: 76.4%; viability, T/C [19]: 55.3%; viability, T/C [20]: 32.6%; viability, T/C (second compound 10 µM, first compound 0.949 µM): 19.6%; viability, T/C (second compound 10 µM, first compound 3 µM): 1.64%
